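A five-concentration, 48-hour dose response in 96-well plates underlies each endpoint, interpolated linearly between surrounding concentrations. TGI: total growth inhibition.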
Key:
Test in all cases: NCI anticancer screen, dose series, 48 h
[1] = tested on: COLO 205 colon
[2] = tested on: CCRF-CEM leukemia
[3] = tested on: BT-549 breast
[4] = tested on: TK-10 renal
[5] = tested on: SW-620 colon
[6] = tested on: UACC-62 melanoma
[7] = tested on: LOX IMVI melanoma
[8] = tested on: SK-MEL-28 melanoma
[9] = tested on: HCT-116 colon
[10] = tested on: UO-31 renal
[11] = tested on: SNB-19 CNS
[12] = tested on: NCI-H226 lung
[13] = tested on: M14 melanoma
[14] = tested on: T-47D breast
[15] = tested on: A549 NSCLC
[16] = tested on: SNB-75 CNS
[17] = tested on: HOP-92 NSCLC
[18] = tested on: MCF7 breast
[19] = tested on: HS 578T breast
[20] = tested on: PC-3 prostate
[21] = tested on: NCI-H460 lung
[22] = tested on: HCC-2998 colon
[23] = tested on: NCI-H23 lung
[24] = tested on: SK-MEL-5 melanoma
[25] = tested on: NCI/ADR-RES ovarian
[26] = tested on: HCT-15 colon
[27] = tested on: MALME-3M melanoma
[28] = tested on: DU-145 prostate
[29] = tested on: SF-295 CNS
[30] = tested on: IGROV1 ovarian
[31] = tested on: SN12C renal
[32] = tested on: U251 CNS
[33] = tested on: EKVX NSCLC
[34] = tested on: SF-268 CNS
[35] = tested on: ACHN renal
[36] = tested on: OVCAR-5 ovarian
[37] = tested on: SK-OV-3 ovarian
[38] = tested on: 786-0 renal
[39] = tested on: MOLT-4 leukemia
[40] = tested on: OVCAR-8 ovarian
[41] = tested on: RXF 393 renal
[42] = tested on: OVCAR-4 ovarian
[43] = tested on: HOP-62 NSCLC
[44] = tested on: SF-539 CNS
[45] = tested on: UACC-257 melanoma
[46] = tested on: CAKI-1 renal
[47] = tested on: SR leukemia
[48] = tested on: KM12 colon
[49] = tested on: OVCAR-3 ovarian
[50] = tested on: MDA-MB-231 breast
[51] = tested on: SK-MEL-2 melanoma
[52] = tested on: MDA-MB-435
[53] = tested on: NCI-H522 lung
[54] = tested on: K-562 leukemia
[55] = tested on: HT29 colon

In the case of `CCOC(=O)c1c(-c2ccc(OC)cc2)ccn1C`, the TGI [1] is reported as greater than 10 µM, the TGI [2] is reported as greater than 10 µM and the TGI [3] is reported as greater than 10 µM. For the same compound, the TGI [4] was greater than 10 µM, the TGI [5] was greater than 10 µM and the TGI [6] was greater than 10 µM. It also gave a TGI [7] greater than 10 µM, a TGI [8] greater than 10 µM and a TGI [9] greater than 10 µM. The TGI [10] was greater than 10 µM, the TGI [11] was greater than 10 µM and the TGI [12] was greater than 10 µM. The TGI [13] was greater than 10 µM, the TGI [14] was greater than 10 µM and the TGI [15] was greater than 10 µM. It also gave a TGI [16] greater than 10 µM, a TGI [17] greater than 10 µM and a TGI [18] greater than 10 µM. For the same compound, the TGI [19] was greater than 10 µM, the TGI [20] was greater than 9.68 µM and the TGI [21] was greater than 10 µM. For the same compound, the TGI [22] was greater than 10 µM, the TGI [23] was greater than 10 µM and the TGI [24] was greater than 10 µM. It also gave a TGI [25] greater than 10 µM, a TGI [26] greater than 10 µM and a TGI [27] greater than 10 µM. It also gave a TGI [28] greater than 10 µM, a TGI [29] greater than 10 µM and a TGI [30] greater than 10 µM. For the same compound, the TGI [31] was greater than 10 µM, the TGI [32] was greater than 10 µM and the TGI [33] was greater than 10 µM. For the same compound, the TGI [34] was greater than 10 µM, the TGI [35] was greater than 10 µM and the TGI [36] was greater than 10 µM. The TGI [37] was greater than 10 µM, the TGI [38] was greater than 10 µM and the TGI [39] was greater than 10 µM. For the same compound, the TGI [40] was greater than 10 µM, the TGI [41] was greater than 10 µM and the TGI [42] was greater than 10 µM. For the same compound, the TGI [43] was greater than 10 µM, the TGI [44] was greater than 10 µM and the TGI [45] was greater than 10 µM. It also gave a TGI [46] greater than 10 µM, a TGI [47] greater than 10 µM and a TGI [48] greater than 10 µM. It also gave a TGI [49] greater than 10 µM, a TGI [50] greater than 10 µM and a TGI [51] greater than 10 µM. For the same compound, the TGI [52] was greater than 10 µM, the TGI [53] was greater than 10 µM and the TGI [54] was greater than 10 µM. It also gave a TGI [55] greater than 10 µM.

— PubChem BioAssay (NCI)
